Assay results from article PMC4491869, “Antimicrobial activity of synthetic cationic peptides and lipopeptides derived from human lactoferricin against Pseudomonas aeruginosa planktonic cultures and biofilms” (BMC Microbiology, 2015).
Converted amounts (≈) assume the structure as drawn. Where two headings read alike, the source gives them in different places. Where a SMILES comes first, the peptide text is derived from it. The star is where a group is joined. Butanoyl(2,2-Me2) = CCC(C)(C)C(=O)*; Octanoyl(6-Me) = CCC(C)CCCCC(=O)*; Octanoyl = CCCCCCCC(=O)*

What was measured:
[1] = test system: Pseudomonas aeruginosa PAO1 planktonic cells; assay type: cell-based
Experimental: Minimal inhibitory concentrations (MIC) of the peptides were determined in Mueller Hinton (MH) medium (Difco Laboratories, Detroit, MI, USA) by the broth microdilution assay following recommendations of the Clinical and Laboratory Standards Institute (CLSI, formerly NCCLS) with some modifications. Minimum bactericidal concentration (MBC) was defined as the concentration that caused a 3-log viability decrease in the initial inoculum and was calculated by colony counts on TSA plates incubated for 24 h at 37 °C.

P. aeruginosa PAO1 = assay: Time-kill curves (T3log); assay type: cell-based, Pseudomonas aeruginosa; conditions: MH, 37 °C with shaking, sampling 15 min to 6 h
Experimental: Time-kill studies were determined with glass tubes containing 10 ml of MH and different concentrations of the peptides (1, 2 and 4 times their MIC). Overnight cultures of P. aeruginosa PAO1 in TSB were adjusted at 5 × 10^7 CFU/ml turbidimetrically. This […] suspension was diluted in the MH tubes (1:50) for the time-kill assay. Tubes were incubated at 37 °C with shaking and samples were taken at the following time points after the beginning of incubation: 15 min, 30 min, 45 min, 1 h, 2 h, 4 h and 6 h. Each sample was serially diluted and plated. The lower limit of detection was 30 CFU/ml (1.5 × log10 CFU/ml).
To quantify the killing efficiency of the treatments, the parameter T3log (defined as the time required for the treatment to decrease 3 logs the initial inoculum) was used.

[2] = test system: P. aeruginosa PAO1 biofilms; assay: Microplate biofilm assay (static flow regime), crystal violet removal activity; assay type: cell-based, Pseudomonas aeruginosa; conditions: 10XMIC, 24 h at 37 °C, biofilms grown in microplates (static conditions)
Experimental: In the microplate based assay, biofilms were grown with no fluid shear and the anti-biofilm activity of peptides was assessed as previously described with some modifications. Briefly, overnight cultures of P. aeruginosa PAO1 in TSB were adjusted at 5 × 10^7 CFU/ml turbidimetrically. This suspension was diluted in TSB (1:100) and 100 μl aliquots were added to the wells of a 96-well plate. After 24 h incubation at 37 °C, planktonic bacteria were removed by gently inverting the plate and then the biofilm-containing wells were washed with saline (0.85 % NaCl). The antimicrobial compound was serially diluted in Mueller Hinton (MH) at final concentrations higher than its planktonic MIC and 200 μl of each dilution was added to the wells. […]
The ability of the antimicrobials to remove the biofilm attached to the microplate well was determined by CV staining. […] The absorbance was measured at 595 nm.
(§1) Both the disinfection and removal activity of antimicrobials were expressed as “activity percentage”, a parameter that was calculated using the following formula: ActivityPercentage=C−B−T−B/C−B×100
(§2) Where C is the absorbance value of the control well with non-treated biofilm, T corresponds to the absorbance value of the well with treated biofilm and B is the blank well (i.e. with no biofilm).

[3] = test system: P. aeruginosa PAO1 biofilms; assay type: cell-based, Pseudomonas aeruginosa
Experimental: In the microplate based assay, biofilms were grown with no fluid shear and the anti-biofilm activity of peptides was assessed as previously described with some modifications. Briefly, overnight cultures of P. aeruginosa PAO1 in TSB were adjusted at 5 × 10^7 CFU/ml turbidimetrically. This suspension was diluted in TSB (1:100) and 100 μl aliquots were added to the wells of a 96-well plate. After 24 h incubation at 37 °C, planktonic bacteria were removed by gently inverting the plate and then the biofilm-containing wells were washed with saline (0.85 % NaCl). The antimicrobial compound was serially diluted in Mueller Hinton (MH) at final concentrations higher than its planktonic MIC and 200 μl of each dilution was added to the wells. After 24 h incubation at 37 °C, biofilms were stained with either MTT (Sigma, St. Louis, MO, USA) or crystal violet (CV). As control, duplicate biofilms were incubated with MH containing no antimicrobial.
To quantify the disinfection (or bactericidal) activity of the antimicrobials on the biofilms, the MTT assay was used and performed as follows. After the treatment, the biofilms were rinsed with saline and 200 μl of a 0.5 mg/ml dilution of MTT in MH, was added to the wells. Incubation of biofilm with MTT was carried out during 4 h at 37 °C with no shaking. As a measure of cell viability, the conversion of MTT to a […] was determined by solubilizing the salt in 100 μl/well of DMSO and reading the absorbance of the resulting solution at 540 nm.
as §1, §2

HeLa cells = assay: Cytotoxicity assay (MTT); assay type: cell-based; conditions: HeLa cells, 24 h, MTT; maximum concentration assayed 10 times their MIC
Experimental: Cytotoxicity was assayed on HeLa cells using the MTT [3-(4,5-dimethylthiazoyl-2-yl) 2,5 diphenyltetrazolium bromide protocol. Cells were grown in Dulbeccos’s modified Eagle’s medium (DMEM) and adjusted to a concentration of 10^5 cells/ml (MTT) in 96 wells polystyrene plates. Plates were incubated for 24 h at 37 °C in 5 % CO2, then supplemented with increasing amounts of peptides diluted in 2 mM Hepes pH 7.2, and incubation carried on for 24 h under the same conditions. After this time, filter-sterilized MTT was added in different plates. After 3 h, the content of the wells was gently solved and mixed with 100 μl of DMSO (MTT). Absorbance was measured at 540 nm. Compound cytotoxicity was expressed as LC50, the concentration of the compound that is lethal to 50 % of the cells.

For CCC(C)CCCCC(=O)N[C@@H](Cc1ccccc1)C(=O)N[C@@H](Cc1c[nH]c2ccccc12)C(=O)N[C@@H](CCCNC(=N)N)C(=O)N[C@H](C(=O)N[C@@H](CCCNC(=N)N)C(=O)N[C@H](C(=O)N[C@@H](CCCNC(=N)N)C(=O)N[C@@H](CCCNC(=N)N)C(N)=O)[C@@H](C)CC)[C@@H](C)CC (stereo partly shown) [6-MO-LF11-215] ({Octanoyl(6-Me)}-FWRIRIRR-NH2), the “MBC (minimal bactericidal concentration)” value ([1]; PAO1, 24 h) was 64 µg/mL (≈ 47.7 µM), the “MIC (minimal inhibitory concentration)” value ([1]; PAO1, 24 h) was 64 µg/mL (≈ 47.7 µM) and the “T3log at 1X MIC (time needed to decrease 3 logs the initial inoculum)” value (P. aeruginosa PAO1) was 34 minutes. For the same molecule, the “T3log at 2X MIC (time needed to decrease 3 logs the initial inoculum)” value (P. aeruginosa PAO1) was 11 minutes and the “T3log at 4X MIC (time needed to decrease 3 logs the initial inoculum)” value (P. aeruginosa PAO1) was 10 minutes.
CCC(C)CCCCC(=O)N1CCC[C@H]1C(=O)N[C@@H](Cc1ccccc1)C(=O)N[C@@H](Cc1c[nH]c2ccccc12)C(=O)N[C@@H](CCCNC(=N)N)C(=O)N[C@H](C(=O)N[C@@H](CCCNC(=N)N)C(=O)N[C@H](C(=O)N[C@@H](CCCNC(=N)N)C(=O)N[C@@H](CCCNC(=N)N)C(N)=O)[C@@H](C)CC)[C@@H](C)CC (stereo partly shown) [6-MO-LF11-322] ({Octanoyl(6-Me)}-PFWRIRIRR-NH2) was tested, and the “MBC (minimal bactericidal concentration)” value ([1]; PAO1, 24 h) was 64 µg/mL (≈ 44.5 µM), the “MIC (minimal inhibitory concentration)” value ([1]; PAO1, 24 h) was 64 µg/mL (≈ 44.5 µM) and the “T3log at 1X MIC (time needed to decrease 3 logs the initial inoculum)” value (P. aeruginosa PAO1) was 41 minutes. The “T3log at 2X MIC (time needed to decrease 3 logs the initial inoculum)” value (P. aeruginosa PAO1) was 39 minutes and the “T3log at 4X MIC (time needed to decrease 3 logs the initial inoculum)” value (P. aeruginosa PAO1) was 19 minutes.
With CC[C@H](C)[C@H](NC(=O)[C@H](CCCNC(=N)N)NC(=O)[C@@H](NC(=O)[C@H](CCCNC(=N)N)NC(=O)[C@H](Cc1c[nH]c2ccccc12)NC(=O)[C@H](Cc1ccccc1)NC(=O)C(C)(C)CC)[C@@H](C)CC)C(=O)N[C@@H](CCCNC(=N)N)C(=O)N[C@@H](CCCNC(=N)N)C(N)=O [DI-MB-LF11-215] ({Butanoyl(2,2-Me2)}-FWRIRIRR-NH2) the “Removal activity (biofilm mass removed, CV test)” value [2] was “higher than 35%”, the “MBC (minimal bactericidal concentration)” value ([1]; PAO1, 24 h) was 16 µg/mL (≈ 12.3 µM) and the “MIC (minimal inhibitory concentration)” value ([1]; PAO1, 24 h) was 16 µg/mL (≈ 12.3 µM). The “T3log at 1X MIC (time needed to decrease 3 logs the initial inoculum)” value (P. aeruginosa PAO1) was 17 minutes, the “T3log at 2X MIC (time needed to decrease 3 logs the initial inoculum)” value (P. aeruginosa PAO1) was 11 minutes and the “T3log at 4X MIC (time needed to decrease 3 logs the initial inoculum)” value (P. aeruginosa PAO1) was 10 minutes. For the same molecule, the “Disinfection activity (biofilm-forming bacteria killed, MTT test)” value ([3]; 10XMIC, 24 h at 37 °C, biofilms grown in microplates (static conditions)) was “medium-range disinfection activity”.
In the case of CC[C@H](C)[C@H](NC(=O)[C@H](CCCNC(=N)N)NC(=O)[C@@H](NC(=O)[C@H](CCCNC(=N)N)NC(=O)[C@H](Cc1c[nH]c2ccccc12)NC(=O)[C@@H](N)Cc1ccccc1)[C@@H](C)CC)C(=O)N[C@@H](CCCNC(=N)N)C(=O)N[C@@H](CCCNC(=N)N)C(N)=O [LF11-215] (H-FWRIRIRR-NH2), the “MIC (minimal inhibitory concentration)” value ([1]; PAO1 planktonic cells, broth microdilution in Mueller Hinton medium, CLSI with some modifications) is reported as 64 µg/mL (≈ 53.3 µM), the “MBC (minimal bactericidal concentration)” value ([1]; PAO1 planktonic cells, concentration causing a 3-log viability decrease in the initial inoculum, colony counts on TSA, 24 h, 37 °C) is reported as 128 µg/mL (≈ 107 µM) and the “LC50 relative to the maximum concentration assayed” value (HeLa cells) is reported as > 10 times their MIC.
For N=C(N)NCCC[C@H](NC(=O)[C@H](CCCNC(=N)N)NC(=O)[C@H](Cc1c[nH]c2ccccc12)NC(=O)[C@H](Cc1ccccc1)NC(=O)[C@H](CCCNC(=N)N)NC(=O)[C@H](CCCNC(=N)N)NC(=O)[C@H](Cc1c[nH]c2ccccc12)NC(=O)[C@@H](N)Cc1ccccc1)C(N)=O [LF11-227] (H-FWRRFWRR-NH2), the “MBC (minimal bactericidal concentration)” value ([1]; PAO1, 24 h) was 64 µg/mL (≈ 48.9 µM), the “MIC (minimal inhibitory concentration)” value ([1]; PAO1, 24 h) was 64 µg/mL (≈ 48.9 µM) and the “Disinfection activity (biofilm-forming bacteria killed, MTT test)” value ([3]; PAO1, 24 h) was ~100%.
With CC[C@H](C)[C@H](NC(=O)[C@H](CCCNC(=N)N)NC(=O)[C@@H](NC(=O)[C@H](CCCNC(=N)N)NC(=O)[C@H](Cc1c[nH]c2ccccc12)NC(=O)[C@H](Cc1ccccc1)NC(=O)[C@@H]1CCCN1)[C@@H](C)CC)C(=O)N[C@@H](CCCNC(=N)N)C(=O)N[C@@H](CCCNC(=N)N)C(N)=O [LF11-322] (H-PFWRIRIRR-NH2) the “MBC (minimal bactericidal concentration)” value ([1]; PAO1, 24 h) was 64 µg/mL (≈ 49.3 µM) and the “MIC (minimal inhibitory concentration)” value ([1]; PAO1, 24 h) was 32 µg/mL (≈ 24.6 µM).
CC[C@H](C)[C@H](NC(=O)[C@H](CCCNC(=N)N)NC(=O)[C@@H](NC(=O)[C@H](CCCNC(=N)N)NC(=O)[C@H](Cc1c[nH]c2ccccc12)NC(=O)[C@H](Cc1ccccc1)NC(=O)[C@H](Cc1ccccc1)NC(=O)[C@@H]1CCCN1)[C@@H](C)CC)C(=O)N[C@@H](CCCNC(=N)N)C(=O)N[C@@H](CCCNC(=N)N)C(N)=O [LF11-324] (H-PFFWRIRIRR-NH2) was tested, and the “MBC (minimal bactericidal concentration)” value ([1]; PAO1, 24 h) was 8 µg/mL (≈ 5.53 µM) and the “MIC (minimal inhibitory concentration)” value ([1]; PAO1, 24 h) was 8 µg/mL (≈ 5.53 µM).
CCCCCCCC(=O)N[C@@H](Cc1ccccc1)C(=O)N[C@@H](Cc1c[nH]c2ccccc12)C(=O)N[C@@H](CCCNC(=N)N)C(=O)N[C@H](C(=O)N[C@@H](CCCNC(=N)N)C(=O)N[C@H](C(=O)N[C@@H](CCCNC(=N)N)C(=O)N[C@@H](CCCNC(=N)N)C(N)=O)[C@@H](C)CC)[C@@H](C)CC [O-LF11-215] (Octanoyl-FWRIRIRR-NH2) was tested, and the “MBC (minimal bactericidal concentration)” value ([1]; PAO1, 24 h) was 32 µg/mL (≈ 24.1 µM), the “MIC (minimal inhibitory concentration)” value ([1]; PAO1, 24 h) was 32 µg/mL (≈ 24.1 µM) and the “T3log at 1X MIC (time needed to decrease 3 logs the initial inoculum)” value (P. aeruginosa PAO1) was 17 minutes. The “T3log at 2X MIC (time needed to decrease 3 logs the initial inoculum)” value (P. aeruginosa PAO1) was 21 minutes and the “T3log at 4X MIC (time needed to decrease 3 logs the initial inoculum)” value (P. aeruginosa PAO1) was 10 minutes.
For CCCCCCCC(=O)N[C@@H](Cc1ccccc1)C(=O)N[C@@H](Cc1c[nH]c2ccccc12)C(=O)N[C@@H](CCCNC(=N)N)C(=O)N[C@@H](CCCNC(=N)N)C(=O)N[C@@H](Cc1ccccc1)C(=O)N[C@@H](Cc1c[nH]c2ccccc12)C(=O)N[C@@H](CCCNC(=N)N)C(=O)N[C@@H](CCCNC(=N)N)C(N)=O [O-LF11-227] (Octanoyl-FWRRFWRR-NH2), the “MBC (minimal bactericidal concentration)” value ([1]; PAO1, 24 h) was 128 µg/mL (≈ 89.2 µM), the “MIC (minimal inhibitory concentration)” value ([1]; PAO1, 24 h) was 128 µg/mL (≈ 89.2 µM) and the “T3log at 1X MIC (time needed to decrease 3 logs the initial inoculum)” value (P. aeruginosa PAO1) was 10 minutes. The “T3log at 2X MIC (time needed to decrease 3 logs the initial inoculum)” value (P. aeruginosa PAO1) was 10 minutes and the “T3log at 4X MIC (time needed to decrease 3 logs the initial inoculum)” value (P. aeruginosa PAO1) was 10 minutes.
